Publication PMC8192494 (European journal of medicinal chemistry, 2021)
Where “and” joins values, the source holds several entries; their conditions need not be identical. Equal entries are not always repeated.

Key:
[1] = test system: TS-induced growth of LNCaP (AR+) PCa cells; test: Inhibition of testosterone-induced cell proliferation of LNCaP PCa cells; assay type: cell-based, human; conditions: 48 h; for reduction relative to the proliferative response induced by 0.1 nM TS: 1 μM dimer
[2] = test system: DHT-induced growth of LNCaP (AR+) PCa cells; test: Inhibition of dihydrotestosterone-induced cell proliferation of LNCaP PCa cells; conditions: 0.1 nM DHT, 48 h; for inhibition of growth induced by DHT: 0.125 μM dimer
[3] = target: isolated recombinant CYP3A4 (Homo sapiens, UniProt P08684); test: Equilibrium ligand binding to CYP3A4; conditions: for high spin: high spin content of ligand-bound CYP3A4, mean of three ± SD; for Kd, fold lower than for 14β: relative to 14β
[4] = test system: PC3 (AR−) androgen-insensitive human prostate adenocarcinoma cells; test: MTT antiproliferative activity assay on PC3 cells; assay type: cell-based; conditions: read-out: IC50 PC3 (AR−), 48 h, concentration inhibiting cell growth by 50%
PC3 (AR−) PCa cells = conditions: read-out: IC50 PC3 (AR−); MTT antiproliferative assay; cited from earlier work
LNCaP (AR+) PCa cells = conditions: read-out: IC50 LNCaP (AR+); MTT antiproliferative assay; cited from earlier work
[5] = test system: LNCaP, PC3 and DU145 prostate cancer cells; test: MTT antiproliferative activity, summarised over the three PCa cell lines; assay type: cell-based; conditions: Homo sapiens, read-out: IC50 range on different cell lines
[6] = test system: LNCaP (AR+) androgen-sensitive human prostate adenocarcinoma cells; test: MTT antiproliferative activity assay on LNCaP cells; assay type: cell-based; conditions: relative to cyproterone acetate

Sequence of isolated recombinant CYP3A4 (P08684 whole entry): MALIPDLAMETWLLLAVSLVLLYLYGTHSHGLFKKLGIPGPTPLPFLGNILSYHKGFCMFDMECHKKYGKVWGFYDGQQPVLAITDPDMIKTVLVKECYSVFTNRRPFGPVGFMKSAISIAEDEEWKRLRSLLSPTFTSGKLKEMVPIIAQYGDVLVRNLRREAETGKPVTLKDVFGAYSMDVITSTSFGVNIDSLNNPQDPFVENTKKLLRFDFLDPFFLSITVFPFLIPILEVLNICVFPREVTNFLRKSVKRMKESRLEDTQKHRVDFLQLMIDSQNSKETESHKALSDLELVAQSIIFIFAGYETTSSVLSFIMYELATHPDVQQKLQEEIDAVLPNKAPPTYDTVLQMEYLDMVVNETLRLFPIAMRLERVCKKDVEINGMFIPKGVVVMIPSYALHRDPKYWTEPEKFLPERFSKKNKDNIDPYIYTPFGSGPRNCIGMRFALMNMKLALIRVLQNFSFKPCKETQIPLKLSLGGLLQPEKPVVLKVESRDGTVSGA

For C[C@]12CC[C@H]3[C@@H]([C@H](/C=C/C=C/C=C/[C@@H]4CC5=CC(=O)CC[C@]5(C)[C@H]5CC[C@]6(C)[C@H](O)CC[C@H]6[C@H]45)CC4=CC(=O)CC[C@@]43C)[C@@H]1CC[C@H]2O (relative stereo) [Compound 14α, trans, trans,trans-1,6-bis-(17α-hydroxy-4-androsten-3-one-7α-yl)hexatriene], the “concentration at which 100% effective against TS-induced cell proliferation” value ([1]; 0.1 nM TS) was 0.25 µM, the “reduction relative to the proliferative response induced by 0.1 nM TS” value [1] was ~ 141% and the “concentration at which 100% effective against DHT-induced cell proliferation” value [2] was 1 µM. For the same compound, the “inhibition of growth induced by DHT” value [2] was “at least 45%”, the high spin [3] was 46 ± 3% and the “Kd, fold lower than for 14β” value [3] was ~ 4 fold.
C=CC=C[C@@H]1CC2=CC(=O)CC[C@]2(C)[C@H]2CC[C@]3(C)[C@@H](O)CC[C@H]3[C@H]12 [Compound 13β, 7α-(buta-1,3-dienyl)-4-androsten-17β-ol-3-one] gave an IC50 [4] of 34.1 µM.
In the case of C[C@]12CC[C@H]3[C@@H]([C@H](C/C=C\C[C@@H]4CC5=CC(=O)CC[C@]5(C)[C@H]5CC[C@]6(C)[C@@H](O)CC[C@H]6[C@H]45)CC4=CC(=O)CC[C@@]43C)[C@@H]1CC[C@@H]2O [cis-10], the IC50 (PC3 (AR−) PCa cells) is given as 24.7 µM, the IC50 (LNCaP (AR+) PCa cells) is given as 30.3 µM and the high spin [3] is given as 99 ± 1%.
In the case of C[C@]12CC[C@H]3[C@@H]([C@H]([C@H]4C=CC[C@H]5C(=O)OC(=O)[C@@H]45)CC4=CC(=O)CC[C@@]43C)[C@@H]1CC[C@@H]2O [Compound 15, 4-(17β-hydroxy-4-androsten-3-one-7α-yl)-3a,4,7,7a-tetrahydro-isobenzofuran-1,3-dione], the IC50 [5] is reported as 62.5 to 131 µM.
For C=CC=C[C@@H]1CC2=CC(=O)CC[C@]2(C)[C@H]2CC[C@]3(C)[C@H](O)CC[C@H]3[C@H]12 [Compound 13α, 7α-(buta-1,3-dienyl)-4-androsten-17α-ol-3-one], the IC50 [4] was 31.5 µM and the “times more active than CPA (IC50 ratio)” value [6] was “about 4 times”.
For C[C@]12CCC(=O)C=C1C[C@@H](/C=C/C=C/C=C/[C@@H]1CC3=CC(=O)CC[C@]3(C)[C@H]3CC[C@]4(C)C(=O)CC[C@H]4[C@H]13)[C@@H]1[C@@H]2CC[C@]2(C)C(=O)CC[C@@H]12 [Compound 14, trans, trans,trans-1,6-bis-(4-androsten-3,17-dione-7α-yl)hexatriene], the IC50 [5] was 29 to 72.7 µM, the high spin [3] was 36 ± 2% and the “Kd, fold lower than for 14β” value [3] was ~ 4 fold.
With C[C@]12CC[C@H]3[C@@H]([C@H](/C=C/C=C/C=C/[C@@H]4CC5=CC(=O)CC[C@]5(C)[C@H]5CC[C@]6(C)[C@@H](O)CC[C@H]6[C@H]45)CC4=CC(=O)CC[C@@]43C)[C@@H]1CC[C@@H]2O (relative stereo) [Compound 14β, trans, trans,trans-1,6-bis-(17β-hydroxy-4-androsten-3-one-7α-yl)hexatriene] the “concentration at which 100% effective against TS-induced cell proliferation” value ([1]; 0.1 nM TS) was 0.5 µM, the “inhibition of growth induced by TS” value ([1]; 0.125 μM dimer, 0.1 nM TS) was “at least 45%” and the “reduction relative to the proliferative response induced by 0.1 nM TS” value [1] was 104%. The “concentration at which 100% effective against DHT-induced cell proliferation” value [2] was 1 µM, the “inhibition of growth induced by DHT” value [2] was “at least 45%” and the high spin [3] was 49 ± 3%. The “times more active than CPA (IC50 ratio)” value [6] was ~ 5 times.
For C[C@]12CC[C@H]3[C@@H]([C@H](C/C=C/C[C@@H]4CC5=CC(=O)CC[C@]5(C)[C@H]5CC[C@]6(C)[C@@H](O)CC[C@H]6[C@H]45)CC4=CC(=O)CC[C@@]43C)[C@@H]1CC[C@@H]2O [trans-10, reference compound], the high spin [3] was 65% and 65 ± 4%.
